# Test results published in US20100298141A1, “SUBSTITUTED PYRIDINE N-OXIDE HERBICIDES” (E. I. DU PONT DE NEMOURS AND COMPANY, priority 2007, published 2010).
# Key:
# velvetleaf = assay: Test A pre-/postemergence greenhouse test; format: in vivo, Abutilon theophrasti; settings: for Plant response rating, Velvetleaf: 0 to 100 scale where 0 is no effect and 100 is complete control; for Velvetleaf plant response rating: 0 to 100 scale
# Procedure, shortened: (§1)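 Untreated controls served as the reference for visual injury ratings taken about ten days after spraying. The non-phytotoxic solvent/surfactant formulation was applied preemergence to seeded loam and sand and postemergence to plants two to ten cm high.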
# crabgrass = assay: Test A pre-/postemergence greenhouse test; format: in vivo, Digitaria sanguinalis; settings: for Plant response rating, Crabgrass, Large: 0 to 100 scale where 0 is no effect and 100 is complete control; for Crabgrass, Large plant response rating: 0 to 100 scale
# Procedure, shortened: as §1
# redroot pigweed = assay: Test A pre-/postemergence greenhouse test; format: in vivo, Amaranthus retroflexus; settings: for Plant response rating, Pigweed: 0 to 100 scale where 0 is no effect and 100 is complete control; for Pigweed plant response rating: 0 to 100 scale
# Procedure, shortened: as §1
# giant foxtail = assay: Test A pre-/postemergence greenhouse test; format: in vivo, Setaria faberi; settings: for Plant response rating, Foxtail, Giant: 0 to 100 scale where 0 is no effect and 100 is complete control; for Foxtail, Giant plant response rating: 0 to 100 scale
# Procedure, shortened: as §1
# corn = assay: Test A pre-/postemergence greenhouse test; format: in vivo, Zea mays; settings: for Plant response rating, Corn: 0 to 100 scale where 0 is no effect and 100 is complete control; for Corn plant response rating: 0 to 100 scale
# Procedure, shortened: as §1
# umbrella sedge = assay: Test C flooded paddy test; format: in vivo, Cyperus difformis; settings: Flood
# Procedure, shortened: (§2)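 Pots were flooded to 3 cm above the soil surface at treatment, compound applied directly to the paddy water, and that depth held throughout. Plants were kept in a greenhouse for 13 to 15 days, then visually rated against untreated controls.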
# wheat = assay: Test A pre-/postemergence greenhouse test; format: in vivo, Triticum aestivum; settings: for Plant response rating, Wheat: 0 to 100 scale where 0 is no effect and 100 is complete control; for Wheat plant response rating: 0 to 100 scale
# Procedure, shortened: as §1
# duck salad = assay: Test C flooded paddy test; format: in vivo, Heteranthera limosa; settings: Flood
# Procedure, shortened: as §2
# rice = assay: Test C flooded paddy test; format: in vivo, Oryza sativa; settings: Flood
# Procedure, shortened: as §2
# barnyardgrass [1] = assay: Test A pre-/postemergence greenhouse test; format: in vivo, Echinochloa crus-galli; settings: for Plant response rating, Barnyardgrass: 0 to 100 scale where 0 is no effect and 100 is complete control; for Barnyardgrass plant response rating: 0 to 100 scale
# Procedure, shortened: as §1
# barnyardgrass [2] = assay: Test C flooded paddy test; format: in vivo, Echinochloa crus-galli; settings: Flood
# Procedure, shortened: as §2
# morningglory = assay: Test A pre-/postemergence greenhouse test; format: in vivo, Ipomoea spp.; settings: for Plant response rating, Morningglory: 0 to 100 scale where 0 is no effect and 100 is complete control; for Morningglory plant response rating: 0 to 100 scale
# Procedure, shortened: as §1
# [3] = Postemergence, 500 g ai/ha, 0 is no effect, 100 is complete control
# [4] = Preemergence, 125 g ai/ha, 0 no effect, 100 complete control
# [5] = Preemergence, 500 g ai/ha, 0 no effect, 100 complete control
# [6] = 62 g ai/ha, scale 0 to 100 (0 no effect, 100 complete control)
# [7] = 250 g ai/ha, scale 0 to 100, 0 no effect, 100 complete control, 13 to 15 days
# [8] = 31 g ai/ha, scale 0 to 100 (0 no effect, 100 complete control)
# [9] = 125 g ai/ha, scale 0 to 100, 0 no effect, 100 complete control, 13 to 15 days
# [10] = 62 g ai/ha, scale 0 to 100, 0 no effect, 100 complete control, 13 to 15 days
smiles,measurement,setting,value
Cc1cc[n+]([O-])c([S+]([O-])Cc2c(C(F)(F)F)nn(C)c2OC(C)C(F)(F)F)c1 (stereo not drawn) [Compound 88],"Plant response rating, Velvetleaf","velvetleaf; Postemergence, 125 g ai/ha",0
same,Velvetleaf plant response rating,velvetleaf; [3],50
same,Velvetleaf plant response rating,velvetleaf; [4],0
same,Velvetleaf plant response rating,velvetleaf; [5],90
same,"Plant response rating, Crabgrass, Large","crabgrass; Postemergence, 125 g ai/ha",50
same,"Crabgrass, Large plant response rating",crabgrass; [3],80
same,"Crabgrass, Large plant response rating",crabgrass; [4],20
same,"Plant response rating, Crabgrass, Large","crabgrass; Preemergence, 500 g ai/ha",90
same,"Plant response rating, Pigweed","redroot pigweed; Postemergence, 125 g ai/ha",30
same,Pigweed plant response rating,redroot pigweed; [3],80
same,Pigweed plant response rating,redroot pigweed; [4],90
same,"Plant response rating, Pigweed","redroot pigweed; Preemergence, 500 g ai/ha",100
same,"Plant response rating, Foxtail, Giant","giant foxtail; Postemergence, 125 g ai/ha",50
same,"Foxtail, Giant plant response rating",giant foxtail; [3],90
same,"Foxtail, Giant plant response rating",giant foxtail; [4],90
same,"Plant response rating, Foxtail, Giant","giant foxtail; Preemergence, 500 g ai/ha",100
same,"Plant response rating, Corn","corn; Postemergence, 125 g ai/ha",20
same,Corn plant response rating,corn; [3],60
same,Corn plant response rating,corn; [4],0
same,"Plant response rating, Corn","corn; Preemergence, 500 g ai/ha",50
same,"Plant response rating, Sedge, Umbrella",umbrella sedge; [6],0
same,"Plant response rating, Sedge, Umbrella",umbrella sedge; [7],85
same,"Plant response rating, Wheat","wheat; Postemergence, 125 g ai/ha",30
same,Wheat plant response rating,wheat; [3],70
same,Wheat plant response rating,wheat; [4],20
same,Wheat plant response rating,wheat; [5],80
same,"Plant response rating, Ducksalad",duck salad; [6],0
same,"Plant response rating, Ducksalad",duck salad; [7],70
same,"Plant response rating, Rice",rice; [6],0
same,"Plant response rating, Rice",rice; [7],45
same,"Plant response rating, Barnyardgrass","barnyardgrass [1]; Postemergence, 125 g ai/ha",30
same,Barnyardgrass plant response rating,barnyardgrass [1]; [3],80
same,Barnyardgrass plant response rating,barnyardgrass [1]; [4],60
same,"Plant response rating, Barnyardgrass","barnyardgrass [1]; Preemergence, 500 g ai/ha",100
same,"Plant response rating, Barnyardgrass",barnyardgrass [2]; [6],0
same,"Plant response rating, Barnyardgrass",barnyardgrass [2]; [7],30
same,"Plant response rating, Morningglory","morningglory; Postemergence, 125 g ai/ha",60
same,Morningglory plant response rating,morningglory; [3],90
same,Morningglory plant response rating,morningglory; [4],70
same,"Plant response rating, Morningglory","morningglory; Preemergence, 500 g ai/ha",90
Cn1nc(C(F)(F)F)c(CS(=O)(=O)c2ccc(F)c[n+]2[O-])c1Cl [Compound 53],"Plant response rating, Velvetleaf","velvetleaf; Postemergence, 125 g ai/ha",0
same,Velvetleaf plant response rating,velvetleaf; [3],0
same,Velvetleaf plant response rating,velvetleaf; [4],0
same,"Plant response rating, Velvetleaf","velvetleaf; Preemergence, 500 g ai/ha",0
same,"Plant response rating, Crabgrass, Large","crabgrass; Postemergence, 125 g ai/ha",40
same,"Crabgrass, Large plant response rating",crabgrass; [3],80
same,"Crabgrass, Large plant response rating",crabgrass; [4],60
same,"Plant response rating, Crabgrass, Large","crabgrass; Preemergence, 500 g ai/ha",90
same,"Plant response rating, Pigweed","redroot pigweed; Postemergence, 125 g ai/ha",20
same,Pigweed plant response rating,redroot pigweed; [3],50
same,Pigweed plant response rating,redroot pigweed; [4],100
same,"Plant response rating, Pigweed","redroot pigweed; Preemergence, 500 g ai/ha",100
same,"Plant response rating, Foxtail, Giant","giant foxtail; Postemergence, 125 g ai/ha",80
same,"Foxtail, Giant plant response rating",giant foxtail; [3],90
same,"Foxtail, Giant plant response rating",giant foxtail; [4],60
same,"Plant response rating, Foxtail, Giant","giant foxtail; Preemergence, 500 g ai/ha",80
same,"Plant response rating, Corn","corn; Postemergence, 125 g ai/ha",0
same,Corn plant response rating,corn; [3],0
same,Corn plant response rating,corn; [4],0
same,"Plant response rating, Corn","corn; Preemergence, 500 g ai/ha",0
same,"Plant response rating, Sedge, Umbrella",umbrella sedge; [8],20
same,"Plant response rating, Sedge, Umbrella",umbrella sedge; [9],80
same,"Plant response rating, Sedge, Umbrella",umbrella sedge; [7],90
same,"Plant response rating, Wheat","wheat; Postemergence, 125 g ai/ha",0
same,Wheat plant response rating,wheat; [3],0
same,Wheat plant response rating,wheat; [4],0
same,"Plant response rating, Wheat","wheat; Preemergence, 500 g ai/ha",0
same,"Plant response rating, Ducksalad",duck salad; [8],20
same,"Plant response rating, Ducksalad",duck salad; [10],60
same,"Plant response rating, Ducksalad",duck salad; [9],100
same,"Plant response rating, Ducksalad",duck salad; [7],100
same,"Plant response rating, Rice",rice; [8],0
same,"Plant response rating, Rice",rice; [10],25
same,"Plant response rating, Rice",rice; [9],60
same,"Plant response rating, Rice",rice; [7],75
same,"Plant response rating, Barnyardgrass","barnyardgrass [1]; Postemergence, 125 g ai/ha",60
same,Barnyardgrass plant response rating,barnyardgrass [1]; [3],80
same,Barnyardgrass plant response rating,barnyardgrass [1]; [4],50
same,"Plant response rating, Barnyardgrass","barnyardgrass [1]; Preemergence, 500 g ai/ha",80
same,"Plant response rating, Barnyardgrass",barnyardgrass [2]; [8],0
same,"Plant response rating, Barnyardgrass",barnyardgrass [2]; [10],0
same,"Plant response rating, Barnyardgrass",barnyardgrass [2]; [9],60
same,"Plant response rating, Barnyardgrass",barnyardgrass [2]; [7],80
same,"Plant response rating, Morningglory","morningglory; Postemergence, 125 g ai/ha",20
same,Morningglory plant response rating,morningglory; [3],30
same,Morningglory plant response rating,morningglory; [4],30
same,"Plant response rating, Morningglory","morningglory; Preemergence, 500 g ai/ha",70
